The values that follow are results of earlier work, collected in patent US10335452B2, “Method of treating patients with hepatorenal syndrome type 1” (Mallinckrodt Hospital Products IP Limited, priority 2014, dated 2019).

Structures are written as SMILES. Positions of bridges follow the written chain, without caps; N, C: chain ends. Residues, ends and D or L forms follow the SMILES beside them.

The conditions of data set [1]: in vivo.
The next data set deals with HRS-1 patients. The conditions noted are these: each listed reaction occurred in more than this share of patients.

For the compound `NC(=O)CC[C@@H]1NC(=O)[C@H](Cc2ccccc2)NC(=O)[C@H](Cc2ccc(O)cc2)NC(=O)[C@@H](N)CSSC[C@@H](C(=O)N2CCC[C@H]2C(=O)N[C@@H](CCCN=C(N)N)C(=O)NCC(N)=O)NC(=O)[C@H](CC(N)=O)NC1=O` [vasopressin], in data set [1], the duration of action was 30 to 60 min. Regarding `NCCCC[C@H](NC(=O)[C@@H]1CCCN1C(=O)[C@@H]1CSSC[C@H](NC(=O)CNC(=O)CNC(=O)CN)C(=O)N[C@@H](Cc2ccc(O)cc2)C(=O)N[C@@H](Cc2ccccc2)C(=O)N[C@@H](CCC(N)=O)C(=O)N[C@@H](CC(N)=O)C(=O)N1)C(=O)NCC(N)=O` [terlipressin, N—[N—(N-glycylglycyl)glycyl]-8-L-lysinevasopressin] (H-GGGCYFQNCPKG-NH2; disulfide 4-9 (inferred)), in the data set with HRS-1 patients, the “Adverse reaction, share of patients (vomiting, abdominal pain, nausea, diarrhea, intestinal ischemia, dyspnea, sneezing, pulmonary edema and fluid overload)” value is reported as “more than 10%”. Besides, the duration of action in data set [1] is 120 to 600 min.
